Experimental data as given in paper PMC10534827 (Pharmaceuticals, 2023).

Key:
[1] = target: T1, Acetylcholinesterase from Electrophorus electricus (Electrophorus electricus, UniProt O42275); test: biochemical; assay type: biochemical; settings: for inhibition at 1000 µM: 1 mM solution of the tested compound, read-out: Activity [%] (inhibition percentage of AChE); for SI AChE: IC50(BChE)/IC50(AChE); for IC50: mean ± SD of three experiments, read-out: AChE IC50
T1 construct: purchased Sigma-Aldrich, Hamburg, Germany
T1 sequence (O42275 24-633): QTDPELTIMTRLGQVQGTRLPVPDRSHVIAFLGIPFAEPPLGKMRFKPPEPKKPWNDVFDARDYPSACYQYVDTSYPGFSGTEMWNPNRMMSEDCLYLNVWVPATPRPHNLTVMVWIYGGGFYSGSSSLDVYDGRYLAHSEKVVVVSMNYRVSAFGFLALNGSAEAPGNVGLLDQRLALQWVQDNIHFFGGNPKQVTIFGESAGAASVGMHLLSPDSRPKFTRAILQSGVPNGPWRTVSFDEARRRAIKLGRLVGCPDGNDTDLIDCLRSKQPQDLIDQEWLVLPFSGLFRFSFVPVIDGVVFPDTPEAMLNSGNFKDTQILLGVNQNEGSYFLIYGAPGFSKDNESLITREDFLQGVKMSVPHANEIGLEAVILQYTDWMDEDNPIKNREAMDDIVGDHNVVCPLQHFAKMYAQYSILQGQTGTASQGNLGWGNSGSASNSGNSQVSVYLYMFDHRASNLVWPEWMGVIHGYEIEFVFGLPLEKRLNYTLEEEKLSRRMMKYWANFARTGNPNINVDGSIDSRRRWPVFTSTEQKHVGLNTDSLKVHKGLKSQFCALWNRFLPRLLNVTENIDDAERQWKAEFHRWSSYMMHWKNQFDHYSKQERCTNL
Description: (§1) AChE and BChE inhibitory activity was measured using the microplate assay described by Ellman et al. [68] with the modifications added by López et al. [36]. The compounds were tested at concentrations between 10^−3 and 10^−8 M. First, all compounds were dissolved in 1% DMSO in a concentration of 1 mg/mL.
(§2) Incubation of the plates was performed at room temperature for 30 min. Then, 100 μL of substrate solution were added to start the enzymatic reaction. […] Enzyme activity was calculated as an inhibition percentage compared to an assay including buffer instead of an inhibitor. […] All data were analyzed with the software package Prism 3 (Graph Pad Inc., San Diego, CA, USA).

[2] = target: T2, butyrylcholinesterase from equine serum (Equus caballus, UniProt P81908); test: biochemical; settings: for inhibition at 1000 µM: 1 mM solution of the tested compound, read-out: Activity [%] (inhibition percentage of BChE); for IC50: mean ± SD of three experiments, read-out: BChE IC50
T2 construct: butyrylcholinesterase from equine serum; purchased Sigma-Aldrich, Hamburg, Germany; host or cells: equine serum
T2 sequence (P81908 whole entry): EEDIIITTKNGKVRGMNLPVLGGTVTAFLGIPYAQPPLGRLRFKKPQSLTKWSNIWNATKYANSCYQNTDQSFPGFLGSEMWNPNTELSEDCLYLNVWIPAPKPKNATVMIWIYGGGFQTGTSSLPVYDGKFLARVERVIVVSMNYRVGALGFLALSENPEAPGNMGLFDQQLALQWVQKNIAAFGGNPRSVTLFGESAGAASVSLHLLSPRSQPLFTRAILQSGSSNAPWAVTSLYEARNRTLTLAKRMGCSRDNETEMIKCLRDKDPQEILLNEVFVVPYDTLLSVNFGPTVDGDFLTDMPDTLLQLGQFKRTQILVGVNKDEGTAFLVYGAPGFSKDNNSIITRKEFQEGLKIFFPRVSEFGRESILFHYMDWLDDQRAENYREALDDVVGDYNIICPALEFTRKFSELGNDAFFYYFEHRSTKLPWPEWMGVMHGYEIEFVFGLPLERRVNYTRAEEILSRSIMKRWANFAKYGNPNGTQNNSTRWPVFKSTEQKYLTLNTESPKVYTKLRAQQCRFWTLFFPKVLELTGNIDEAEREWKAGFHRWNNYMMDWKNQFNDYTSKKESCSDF
Description: as §1, §2

Neuro-2a cells = test: MTT cytotoxicity, Neuro-2a; assay type: cell-based, murine; settings: Mus musculus, N2a; MTT, 72 h exposure; read-out: Neuro-2a IC50
SH-SY5Y cells = test: MTT cytotoxicity, SH-SY5Y; assay type: cell-based, human; settings: Homo sapiens, SH-SY5Y; MTT, 72 h exposure; read-out: SH-SY5Y IC50
CCL-1 cells = test: MTT cytotoxicity, CCL-1 normal fibroblasts; assay type: cell-based, murine; settings: Mus musculus, Fibroblast; MTT, 72 h exposure; read-out: CCL-1 IC50
[3] = ABTS radical scavenging assay; settings: 734 nm after 5 min
[4] = Ferric reducing antioxidant power (FRAP); settings: 150 μL of 5 mM compound, 30 min, 593 nm, Trolox equivalent
[5] = Lipid peroxidation in linoleic acid system, FTC method; settings: 10 mM compound, 500 nm
Description: The antioxidant activity of studied compounds against lipid peroxidation was measured through ammonium thiocyanate assay as described by Takao et al. [66] with some modifications. […] A 10 μL aliquot of the reaction solution was then added to 200 μL of 70% (v/v) ethanol and 10 μL of 30% (w/v) ammonium thiocyanate. […] Aliquots were assayed every 24 h until the day after the absorbance of the control solution (without compound) reached maximum value. BHT (10 mM) was used as positive control.

[6] = DPPH radical scavenging activity; settings: 300 μL of 5 mM compound in MeOH, 30 min, 517 nm

## COc1ccc(C(=O)N/N=C/C2CCN(Cc3ccccc3)CC2)cc1 [3d, N’-[(E)-(1-benzylpiperidin-4-yl)methylidene]-4-methoxybenzohydrazide]
[1]
  inhibition at 1000 µM: 81.2%
  SI AChE: 20.19
  IC50: 9.77 ± 0.76 µM
[2]
  inhibition at 1000 µM: 72.9%
  IC50: 197 ± 18.7 µM
Neuro-2a cells
  IC50: > 300 µM
SH-SY5Y cells
  IC50: 122 ± 9.2 µM
CCL-1 cells
  IC50: 220 µM
[3]
  ABTS Activity: ≥100%
  IC50: 1050 ± 40 µM
[4]
  FRAP: 15.87 ± 1.41 μMTE
[5]
  Absorbance Day 1: 0.85 ± 0.02
  Absorbance Day 2: 0.86 ± 0.02
  Absorbance Day 3: 0.88 ± 0.05
  Absorbance Day 4: 0.85 ± 0.07
  Absorbance Day 5: 0.84 ± 0.09
[6]
  DPPH Activity: 40.80 ± 3.10%

## O=C(N/N=C/c1ccc(O)cc1)C1CCN(Cc2ccccc2)C1 (stereo not drawn) [3e, 1-benzyl-N’-[(E)-(4-hydroxyphenyl)methylidene]pyrrolidine-3-carbohydrazide]
[1]
  AChE inhibitory activity in words: practically inactive
  inhibition at 1000 µM: 3.84%
  IC50: > 1000 µM
[2]
  inhibition at 1000 µM: 12.4%
  IC50: > 1000 µM
Neuro-2a cells
  IC50: > 300 µM
SH-SY5Y cells
  IC50: 170 ± 10.6 µM
CCL-1 cells
  IC50: > 300 µM

## O=C(N/N=C/c1ccc(O)cc1O)C1CCN(Cc2ccccc2)C1 (stereo not drawn) [3f, 1-benzyl-N’-[(E)-(2,4-dihydroxyphenyl)methylidene]pyrrolidine-3-carbohydrazide]
[1]
  inhibition at 1000 µM: 64.1%
  SI AChE: 1.28
  IC50: 550 ± 37.1 µM
[2]
  inhibition at 1000 µM: 57.2%
  IC50: 709 ± 41.3 µM
Neuro-2a cells
  IC50: 12.5 ± 2.4 µM
SH-SY5Y cells
  IC50: 35.8 ± 5.5 µM
CCL-1 cells
  IC50: 150 ± 11.2 µM

## O=C(N/N=C/c1ccc(O)c(O)c1)C1CCN(Cc2ccccc2)C1 (stereo not drawn) [3g, 1-benzyl-N’-[(E)-(3,4-dihydroxyphenyl)methylidene]pyrrolidine-3-carbohydrazide]
[1]
  AChE inhibitory activity in words: practically inactive
  inhibition at 1000 µM: 2.74%
  IC50: > 1000 µM
[2]
  inhibition at 1000 µM: 28.2%
  IC50: > 1000 µM
Neuro-2a cells
  IC50: 110 ± 9.1 µM
SH-SY5Y cells
  IC50: > 300 µM
CCL-1 cells
  IC50: > 300 µM

## O=C(N/N=C/c1c(O)cc(O)cc1O)C1CCN(Cc2ccccc2)C1 (stereo not drawn) [3h, 1-benzyl-N’-[(E)-(2,4,6-trihydroxyphenyl)methylidene]pyrrolidine-3-carbohydrazide]
[1]
  inhibition at 1000 µM: 73.3%
  IC50: 351 ± 17.9 µM
[2]
  inhibition at 1000 µM: 76.5%
  IC50: 179 ± 11.5 µM
[2]; IC50(AChE)/IC50(BChE)
  SI BChE: 1.96
Neuro-2a cells
  IC50: > 300 µM
SH-SY5Y cells
  IC50: > 300 µM
CCL-1 cells
  IC50: > 300 µM

## COc1ccc2[nH]cc(/C=N/NC(=O)CNC(=O)OC(C)(C)C)c2c1 [3j]
[1]
  IC50: > 1000 µM
[2]
  inhibition at 1000 µM: 17.4%
  IC50: > 1000 µM
Neuro-2a cells
  IC50: > 300 µM
SH-SY5Y cells
  IC50: 150 ± 12.3 µM
CCL-1 cells
  IC50: > 300 µM

## COc1ccc2c(c1)c(/C=N/NC(=O)CNC(=O)OC(C)(C)C)cn2C [3k]
[1]
  inhibition at 1000 µM: 3.26%
  IC50: > 1000 µM
[2]
  inhibition at 1000 µM: 30.3%
  IC50: > 1000 µM
Neuro-2a cells
  IC50: > 300 µM
SH-SY5Y cells
  IC50: 131 ± 11.8 µM
CCL-1 cells
  IC50: > 300 µM

## Cn1cc(/C=N/NC(=O)CNC(=O)OC(C)(C)C)c2ccccc21 [3l, tert-butyl(2-{(2E)-2-[(1-methyl-1H-indol-3-yl)methylidene]hydrazinyl}-2-oxoethyl)carbamate]
[1]
  IC50: > 1000 µM
[2]
  inhibition at 1000 µM: 39.1%
  IC50: > 1000 µM
Neuro-2a cells
  IC50: > 300 µM
SH-SY5Y cells
  IC50: 107 ± 8.9 µM
CCL-1 cells
  IC50: > 300 µM

## COc1ccc(/C=N/NC(=O)c2c[nH]c3ccccc23)cc1OC [3o, N’-[(E)-(3,4-dimethoxyphenyl)methylidene]-1H-indole-3-carbohydrazide]
[1]
  IC50: > 1000 µM
[2]
  IC50: > 1000 µM
Neuro-2a cells
  IC50: 126 ± 10.7 µM
SH-SY5Y cells
  IC50: 70 ± 7.2 µM
CCL-1 cells
  IC50: > 300 µM

## COc1ccc(/C=N/NC(=O)Cc2c[nH]c3ccccc23)cc1OC [3p, N’-[(E)-(3,4-dimethoxyphenyl)methylidene]-2-(1H-indol-3-yl)acetohydrazide]
[1]
  IC50: > 1000 µM
[2]
  inhibition at 1000 µM: 24%
  IC50: > 1000 µM
Neuro-2a cells
  IC50: 116 ± 12.8 µM
SH-SY5Y cells
  IC50: 87.4 ± 7.7 µM
CCL-1 cells
  IC50: > 300 µM

## COc1cc(/C=N/NC(=O)c2ccc(O)cc2O)ccc1O [3r, 2,4-dihydroxy-N’-[(E)-(4-hydroxy-3-methoxyphenyl)methylidene]benzohydrazide]
[1]
  IC50: > 1000 µM
[2]
  inhibition at 1000 µM: 16.9%
  IC50: > 1000 µM
Neuro-2a cells
  IC50: > 300 µM
SH-SY5Y cells
  IC50: 156 ± 11.1 µM
CCL-1 cells
  IC50: > 300 µM
[3]
  ABTS Activity: 91.41 ± 0.47%
  IC50: 2500 ± 230 µM
[4]
  FRAP: 14.30 ± 0.56 μMTE
[5]
  Absorbance Day 1: 0.80 ± 0.04
  Absorbance Day 2: 0.81 ± 0.01
  Absorbance Day 3: 0.82 ± 0.02
  Absorbance Day 4: 0.87 ± 0.09
  Absorbance Day 5: 0.86 ± 0.09
